# Laboratory results: patent publication US7723355B2, “7,8-dihydro-1,6-naphthyridin-5(6H)-ones and related bicyclic compounds as inhibitors of dipeptidyl peptidase IV and methods” (Bristol-Myers Squibb Company, priority 2006, dated 2010)
# Counter-ions that a name gives are not always drawn.
# Target: T1, human DPP-4 (Homo sapiens, UniProt P27487)
# T1 construct: during isolation the entire transmembrane domain (including His tag) is removed by proteases present in the CHO cells; His tag (enterokinase-cleavable, from pcDNA4/HisMax) (N, cleaved yes); made in house
# T1 sequence (P27487 29-766 limits assumed): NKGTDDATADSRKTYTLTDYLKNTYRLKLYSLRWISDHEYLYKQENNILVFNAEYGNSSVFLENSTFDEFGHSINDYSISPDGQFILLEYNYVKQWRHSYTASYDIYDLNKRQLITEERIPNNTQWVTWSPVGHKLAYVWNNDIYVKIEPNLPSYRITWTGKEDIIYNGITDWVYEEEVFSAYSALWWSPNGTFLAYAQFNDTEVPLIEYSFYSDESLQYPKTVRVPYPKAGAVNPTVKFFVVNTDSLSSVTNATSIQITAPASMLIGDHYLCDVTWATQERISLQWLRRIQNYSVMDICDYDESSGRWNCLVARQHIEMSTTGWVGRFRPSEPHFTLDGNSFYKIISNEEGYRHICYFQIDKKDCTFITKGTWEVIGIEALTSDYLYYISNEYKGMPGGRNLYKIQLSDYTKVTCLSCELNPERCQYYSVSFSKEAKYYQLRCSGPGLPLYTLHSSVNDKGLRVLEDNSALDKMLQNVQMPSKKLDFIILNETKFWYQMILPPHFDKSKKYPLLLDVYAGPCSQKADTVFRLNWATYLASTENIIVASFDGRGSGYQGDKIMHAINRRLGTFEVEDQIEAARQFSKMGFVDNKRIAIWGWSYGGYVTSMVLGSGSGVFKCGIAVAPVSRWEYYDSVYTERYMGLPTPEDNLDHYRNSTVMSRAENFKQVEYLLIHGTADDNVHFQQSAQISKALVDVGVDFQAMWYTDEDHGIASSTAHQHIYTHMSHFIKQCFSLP
# Assay: DPP-4 inhibition assay (cleavage of pseudosubstrate Gly-Pro-pNA, absorbance at 405 nm)
# Type: biochemical
# Details: recombinant human DPP-4, steady state, Gly-Pro-pNA 120 or 1000 μM, pH 7.4, 40 min preincubation; IC50 converted to Ki assuming competitive inhibition; read-out: DPP4 Ki
# Method: DPP-4 inhibitory activity of the compounds of the present invention may be determined by use of an in vitro assay system which measures the degree in inhibition of DPP-4-mediated cleavage of an appropriate substrate or pseudo-substrate. Inhibition constants (Ki values) for the DPP-4 inhibitors of the invention may be determined by the method described in the experimental section below.
# To generate human DPP-4, PCR (Red-tag polymerase, Sigma) was performed on Human cDNA from placenta (Clontech) using two primers, […] (SEQ ID NO:1) and […] (SEQ ID NO:2), based on the nucleotide sequence of the human clone (accession number M74777). PCR products were cloned into the pcDN4/HisMax TOPO vector (Invitrogene). For stable transfection of CHO-DG44 cells, DPP4 was rePCRed using primers […] (SEQ ID NO:3) and […] (SEQ ID NO:4) to generate KpnI and XhoI sites. The KpnI and XhoI sites were used to extract the N-terminal His tagged gene. The His tag, which could be cleaved and removed by Enterokinase, was included to allow purification using the TALON affinity column. The gene was then ligated into the KpnI and XhoI sites of the pD16 vector for stable transfection. Stable cell lines were generated by transfecting the expression vector into Chinese hamster ovary (CHO-DG44) cells using electroporation. The CHO-DG44 cell line was grown in PFCHO media supplemented with HT (glycine, hypoxanthine and thymidine, Invitrogene), glutamine and Recombulin (ICN). Then 1×10^7 cells/ml were collected, transfected with 60 μg of DNA using electroporation at 300V, and then transferred to a T75 flask. On the third day following transfection, the HT supplement was removed and selection was initiated with methotrexate (MTX, 10 nM, ICN). After a further 10 days the cells were plated into individual wells of 96 well plates. Every 10 days the concentration of MTX was increased two to three fold, up to a maximum of 400 nM. Final stable cell line selection was based on yield and activity of the expressed protein.
# An attempt to purify recombinant DPP-4 using Talon resin was not efficient, resulting in small yields, with most of the DPP activity passing through the column. Therefore, protein was further purified using conventional anion exchange (Sepharose Q), gel filtration (S-200) and high resolution MonoQ columns. The final protein yielded a single band on SDS-PAGE gels. Amino acid sequence analysis indicated two populations of DPP-4 in the sample. One portion of the protein had 27 amino acids truncated from the N-terminus, while the other was lacking the N-terminal 37 amino acids. […] Total protein concentration was measured using the Bradford dye method and the amount of the active DPP-4 was determined by titrating the enzyme with a previously characterized inhibitor (Ki=0.4 nM).
# Inhibition of human DPP-4 activity was measured under steady-state conditions by following the absorbance increase at 405 nm upon the cleavage of the pseudosubstrate, Gly-Pro-pNA. Assays were performed in 96-well plates using a Thermomax plate reader. […] To ensure steady-state conditions for slow-binding inhibitors, enzyme was preincubated with the compound for 40 minutes prior to substrate addition, to initiate the reaction.
# Inhibitor potency was evaluated by fitting inhibition data to the binding isotherm:
# [formula] where vi is the initial reaction velocity at different concentrations of inhibitor I; v is the control velocity in the absence of inhibitor, range is the difference between the uninhibited velocity and background; background is the rate of spontaneous substrate hydrolysis in the absent of enzyme, n is the Hill coefficient.
# Calculated IC50s at each substrate concentration were converted to Ki assuming competitive inhibition according to:
# All inhibitors were competitive as judged by a very good agreement of Ki values obtained from the assays at high and low substrate concentrations. […]
row,SMILES,Ki [nM]
1,"Cc1nc2c(c(-c3ccc(Cl)cc3Cl)c1CN)C(=O)N(CC(=O)N(C)C)CC2 (single isomer, unassigned) [Example 2, TFA salt]",2.01
2,"Cc1nc2c(c(-c3ccc(Cl)cc3Cl)c1CN)C(=O)N(CC(=O)N(C)C)CC2 (single isomer, unassigned) [Example 4, TFA salt]",39.7
3,"Cc1nc2c(c(-c3ccc(Cl)cc3Cl)c1CN)C(=O)NCC2 [Example 1, 3-(Aminomethyl)-4-(2,4-dichlorophenyl)-2-methyl-7,8-dihydro-1,6-naphthyridin-5(6H)-one HCl salt]",6.9
4,"Cc1nc2c(c(-c3ccc(Cl)cc3Cl)c1CN)C(=O)N(CC(N)=O)CC2 [Example 6, (S)-2-(3-(Aminomethyl)-4-(2,4-dichlorophenyl)-2-methyl-5-oxo-7,8-dihydro-1,6-naphthyridin-6(5H)-yl)acetamide TFA salt]",3.44
5,"CCN(CC)C(=O)CN1CCc2nc(C)c(CN)c(-c3ccc(Cl)cc3Cl)c2C1=O [Example 8, (S)-2-(3-(Aminomethyl)-4-(2,4-dichlorophenyl)-2-methyl-5-oxo-7,8-dihydro-1,6-naphthyridin-6(5H)-yl)-N,N-diethylacetamide TFA salt]",3.82
6,"Cc1nc2c(c(-c3ccc(Cl)cc3Cl)c1CN)C(=O)N(CC(=O)N1CCCC1)CC2 [Example 9, (S)-3-(Aminomethyl)-4-(2,4-dichlorophenyl)-2-methyl-6-(2-oxo-2-(pyrrolidin-1-yl)ethyl)-7,8-dihydro-1,6-naphthyridin-5(6H)-one TFA salt]",3.5
7,"Cc1nc2c(c(-c3ccc(Cl)cc3Cl)c1CN)C(=O)N(CC(=O)N1CCCCC1)CC2 [Example 10, (S)-3-(Aminomethyl)-4-(2,4-dichlorophenyl)-2-methyl-6-(2-oxo-2-(piperidin-1-yl)ethyl)-7,8-dihydro-1,6-naphthyridin-5(6H)-one TFA salt]",3.87
8,"Cc1nc2c(c(-c3ccc(Cl)cc3Cl)c1CN)C(=O)N(CC(=O)N1CCC(N3CCCCC3=O)CC1)CC2 [Example 11, (S)-3-(Aminomethyl)-4-(2,4-dichlorophenyl)-2-methyl-6-(2-oxo-2-(2-oxo-1,4′-bipiperidin-1′-yl)ethyl)-7,8-dihydro-1,6-naphthyridin-5(6H)-one TFA salt]",49.2
9,"Cc1nc2c(c(-c3ccc(Cl)cc3Cl)c1CN)C(=O)N(CC(=O)N1CCOCC1)CC2 [Example 12, (S)-3-(Aminomethyl)-4-(2,4-dichlorophenyl)-2-methyl-6-(2-morpholino-2-oxoethyl)-7,8-dihydro-1,6-naphthyridin-5(6H)-one TFA salt]",4.43
10,"Cc1nc2c(c(-c3ccc(Cl)cc3Cl)c1CN)C(=O)N(C)CC2 [Example 13, 3-(Aminomethyl)-4-(2,4-dichlorophenyl)-2,6-dimethyl-7,8-dihydro-1,6-naphthyridin-5(6H)-one TFA salt]",7.72
11,"Cc1nc2c(c(-c3ccc(Cl)cc3Cl)c1CN)C(=O)N(CCO)CC2 [Example 16, 3-(Aminomethyl)-4-(2,4-dichlorophenyl)-6-(2-hydroxyethyl)-2-methyl-7,8-dihydro-1,6-naphthyridin-5(6H)-one TFA salt]",18

# Further lines, results first:
row,Ki [nM],SMILES
1,37.8,"Cc1nc2c(c(-c3ccccc3Cl)c1CN)C(=O)N(CC(=O)N(C)C)CC2 (single isomer, unassigned) [Example 3, TFA salt]"
2,> 100,"Cc1nc2c(c(-c3ccccc3Cl)c1CN)C(=O)N(CC(=O)N(C)C)CC2 (single isomer, unassigned) [Example 5, TFA Salt]"
3,5.91,"Cc1nc2c(c(-c3ccc(Cl)cc3Cl)c1CN)C(=O)N(C[C@@H]1CCCO1)CC2 [Example 14, 3-(Aminomethyl)-4-(2,4-dichlorophenyl)-2-methyl-6-(((S)-tetrahydrofuran-2-yl)methyl)-7,8-dihydro-1,6-naphthyridin-5(6H)-one TFA salt]"
4,5.39,"COCCN1CCc2nc(C)c(CN)c(-c3ccc(Cl)cc3Cl)c2C1=O [Example 15, 3-(Aminomethyl)-4-(2,4-dichlorophenyl)-6-(2-methoxyethyl)-2-methyl-7,8-dihydro-1,6-naphthyridin-5(6H)-one TFA salt]"
5,5,"Cc1nc2c(c(-c3ccc(Cl)cc3Cl)c1CN)C(=O)N(c1ccccc1)CC2 [Example 17, 3-(Aminomethyl)-4-(2,4-dichlorophenyl)-2-methyl-6-phenyl-7,8-dihydro-1,6-naphthyridin-5(6H)-one TFA salt]"
6,2.28,"COc1ccccc1N1CCc2nc(C)c(CN)c(-c3ccc(Cl)cc3Cl)c2C1=O [Example 18, 3-(Aminomethyl)-4-(2,4-dichlorophenyl)-6-(2-methoxyphenyl)-2-methyl-7,8-dihydro-1,6-naphthyridin-5(6H)-one TFA Salt]"
7,9.35,"Cc1nc2c(c(-c3ccc(Cl)cc3Cl)c1CN)C(=O)NC(=O)C2 [Example 19, 3-(Aminomethyl)-4-(2,4-dichlorophenyl)-2-methyl-1,6-naphthyridine-5,7(6H,8H)-dione TFA Salt]"
